# Experimental data from US20260041669A1, “SOLID FORMS OF A CDK INHIBITOR” (Relay Therapeutics, Inc., priority 2022, published 2026).
# Values joined by “and” are separate entries in the source; they are usually repeats but may differ in a detail not shown here. Equal values may be shown once. Read-outs that look alike come from different tables or passages of the source.
# Test: Thermodynamic solubility of cocrystals (HPLC quantitation)
# Type: physicochemical
# Conditions: for solubility at 24 h: thermodynamic from solid
# Procedure: Base Buffer (FaSSGF), pH 1.6—Sodium chloride (2.03 g) was dissolved in Ca. 800 ml of deionised water in a 1 L volumetric flask. This solution was mixed thoroughly and then the pH adjusted to 1.6±0.05 with concentrated hydrochloric acid. The solution was then made to volume with deionised water and the pH recorded (pH 1.6).
# FaSSGF Media—Phares SIF (simulated intestinal fluid) powder (0.06 g) was dissolved in Ca. 800 ml of base buffer (2.1.1) in a 1 L volumetric flask. This solution was mixed thoroughly and then made to volume with the same base buffer. The final pH was recorded (pH 1.7)
# Acetate Base Buffer (FeSSIF), pH 5.0—Sodium hydroxide (11.90 g), acetic acid (8.25 ml) and sodium chloride (3.96 g) were dissolved in Ca. 800 ml of deionised water in a 1 L volumetric flask. This solution was mixed thoroughly and then the pH adjusted to 5.0±0.05 with 0.5M hydrochloric acid. The solution was then made to volume with deionised water and the pH recorded (pH 5.0)
# FeSSIF Media—Phares SIF (simulated intestinal fluid) powder (1.12 g) was dissolved in Ca. 80 ml of base buffer (2.2.1) in a 100 ml volumetric flask. This solution was mixed thoroughly and then made to volume with the same base buffer. The final pH was recorded (pH 4.8)
# Phosphate Base Buffer (FeSSIF), pH 6.5—Sodium hydroxide (0.41 g), sodium phosphate monobasic (3.95 g) and sodium chloride (6.49 g) were dissolved in Ca. 800 ml of deionised water in a 1 L volumetric flask. This solution was mixed thoroughly and then the pH adjusted to 6.5 f 0.05 with 0.5M hydrochloric acid. The solution was then made to volume with deionised water and the pH recorded (pH 6.5)
# FaSSIF Media—Phares SIF (simulated intestinal fluid) powder (0.23 g) was dissolved in Ca. 80 ml of base buffer ([00300]) in a 100 ml volumetric flask. This solution was mixed thoroughly and then made to volume with the same base buffer. The final pH was recorded (pH 6.3)
# DI Water (deionized water)—The pH was recorded (pH 6.1)
# Thermodynamic Solubility—Sufficient sample was suspended in 0.5 ml media for a maximum anticipated concentration of Ca. 10 mg/ml of the free form of the compound. The resulting suspensions were then shaken at 25° C./750 rpm for 24 hours in DI H2O and at 37° C./750 rpm for 24 hours in simulated fluids. After equilibration, the appearance was noted, and the pH of the saturated solution was measured. Samples were then filtered through a glass ‘C’ fibre filter (Particle retention 1.2 μm), before dilution with buffer as appropriate.
# Quantitation was by HPLC with reference to a standard solution of approximately 0.15 mg/ml. Different volumes of the standards and diluted sample solutions were injected. The solubility was calculated using the peak areas determined by integration of the peak found at the same retention time as the principal peak in the standard injection.
# The results from the solubility measurements in deionized water (DI water), stimulated fasting state conditions in the gastric fluid (FaSGF), simulated fed state conditions in the small intestines (FeSSIF), and simulated fasting state conditions in the small intestines fluid (FaSSIF) are summarized in Table 16.
# [1] = DI Water, shaken at 25° C./750 rpm for 24 hours, single replicate
# [2] = FaSSGF, shaken at 37° C./750 rpm for 24 hours, average
# [3] = FaSSGF, shaken at 37° C./750 rpm for 24 hours, single replicate
# [4] = FeSSIF, shaken at 37° C./750 rpm for 24 hours, average
# [5] = FeSSIF, shaken at 37° C./750 rpm for 24 hours, single replicate
# [6] = DI Water, shaken at 25° C./750 rpm for 24 hours, average
# [7] = FaSSIF, shaken at 37° C./750 rpm for 24 hours, average
# [8] = FaSSIF, shaken at 37° C./750 rpm for 24 hours, single replicate
SMILES,Solubility [1],Average Solubility [2],Solubility [3],Average Solubility [4],Solubility [5],"solubility at 24 h (deionized water, 25 °C, pH 6.1, water, DI Water, shaken at 25° C./750 rpm for 24 hours, average, read-out: Average Solubility)","solubility at 24 h (deionized water, 25 °C, pH 6.1, water, DI Water, shaken at 25° C./750 rpm for 24 hours, single replicate, read-out: Solubility)",Average Solubility [6],Average Solubility [7],Solubility [8],"solubility at 24 h (FaSSGF (simulated gastric fluid, fasted state), 37 °C, pH 1.7, fassgf or other biorelevant, FaSSGF, shaken at 37° C./750 rpm for 24 hours, average, read-out: Average Solubility)","solubility at 24 h (FaSSGF (simulated gastric fluid, fasted state), 37 °C, pH 1.7, fassgf or other biorelevant, FaSSGF, shaken at 37° C./750 rpm for 24 hours, single replicate, read-out: Solubility)","solubility at 24 h (FaSSIF (simulated intestinal fluid, fasted state), 37 °C, pH 6.3, fassif, FaSSIF, shaken at 37° C./750 rpm for 24 hours, average, read-out: Average Solubility)","solubility at 24 h (FaSSIF (simulated intestinal fluid, fasted state), 37 °C, pH 6.3, fassif, FaSSIF, shaken at 37° C./750 rpm for 24 hours, single replicate, read-out: Solubility)","solubility at 24 h (FeSSIF (simulated intestinal fluid, fed state), 37 °C, pH 4.8, fessif, FeSSIF, shaken at 37° C./750 rpm for 24 hours, average, read-out: Average Solubility)"
Cn1nc(OCC(F)F)cc1C(=O)Nc1cc([C@H]2C[C@@H](OC(=O)NC34CC(C3)C4)CO2)n[nH]1 [Componud I-3 Form A],300 µg/mL,390 µg/mL,380 µg/mL and 390 µg/mL,490 µg/mL,620 µg/mL and 360 µg/mL,300 µg/mL,290 µg/mL,–,–,–,–,–,–,–,–
Cn1nc(OCC(F)F)cc1C(=O)Nc1cc([C@H]2C[C@@H](OC(=O)NC34CC(C3)C4)CO2)n[nH]1 [Compound 1-5 Form A],280 µg/mL,310 µg/mL,310 µg/mL,820 µg/mL,840 µg/mL and 800 µg/mL,–,–,280 µg/mL,250 µg/mL,240 µg/mL,–,–,–,–,–
Cn1nc(OCC(F)F)cc1C(=O)Nc1cc([C@H]2C[C@@H](OC(=O)NC34CC(C3)C4)CO2)n[nH]1 [Compound 1-6 Form A],330 µg/mL,320 µg/mL,320 µg/mL,700 µg/mL,660 µg/mL and 730 µg/mL,–,–,330 µg/mL,310 µg/mL,310 µg/mL,–,–,–,–,–
Cn1nc(OCC(F)F)cc1C(=O)Nc1cc([C@H]2C[C@@H](OC(=O)NC34CC(C3)C4)CO2)n[nH]1 [Compound I-2 Form A],210 µg/mL,–,350 µg/mL,–,920 µg/mL and 850 µg/mL,–,–,210 µg/mL,–,–,350 µg/mL,340 µg/mL,290 µg/mL,290 µg/mL,890 µg/mL
Cn1nc(OCC(F)F)cc1C(=O)Nc1cc([C@H]2C[C@@H](OC(=O)NC34CC(C3)C4)CO2)n[nH]1 [Compound I-4 Form A],290 µg/mL,370 µg/mL,370 µg/mL and 360 µg/mL,880 µg/mL,940 µg/mL and 820 µg/mL,–,–,290 µg/mL,290 µg/mL,280 µg/mL,–,–,–,–,–
